Bounds are passed on as bounds.

human NaV 1.7, sequence (Q15858 whole entry): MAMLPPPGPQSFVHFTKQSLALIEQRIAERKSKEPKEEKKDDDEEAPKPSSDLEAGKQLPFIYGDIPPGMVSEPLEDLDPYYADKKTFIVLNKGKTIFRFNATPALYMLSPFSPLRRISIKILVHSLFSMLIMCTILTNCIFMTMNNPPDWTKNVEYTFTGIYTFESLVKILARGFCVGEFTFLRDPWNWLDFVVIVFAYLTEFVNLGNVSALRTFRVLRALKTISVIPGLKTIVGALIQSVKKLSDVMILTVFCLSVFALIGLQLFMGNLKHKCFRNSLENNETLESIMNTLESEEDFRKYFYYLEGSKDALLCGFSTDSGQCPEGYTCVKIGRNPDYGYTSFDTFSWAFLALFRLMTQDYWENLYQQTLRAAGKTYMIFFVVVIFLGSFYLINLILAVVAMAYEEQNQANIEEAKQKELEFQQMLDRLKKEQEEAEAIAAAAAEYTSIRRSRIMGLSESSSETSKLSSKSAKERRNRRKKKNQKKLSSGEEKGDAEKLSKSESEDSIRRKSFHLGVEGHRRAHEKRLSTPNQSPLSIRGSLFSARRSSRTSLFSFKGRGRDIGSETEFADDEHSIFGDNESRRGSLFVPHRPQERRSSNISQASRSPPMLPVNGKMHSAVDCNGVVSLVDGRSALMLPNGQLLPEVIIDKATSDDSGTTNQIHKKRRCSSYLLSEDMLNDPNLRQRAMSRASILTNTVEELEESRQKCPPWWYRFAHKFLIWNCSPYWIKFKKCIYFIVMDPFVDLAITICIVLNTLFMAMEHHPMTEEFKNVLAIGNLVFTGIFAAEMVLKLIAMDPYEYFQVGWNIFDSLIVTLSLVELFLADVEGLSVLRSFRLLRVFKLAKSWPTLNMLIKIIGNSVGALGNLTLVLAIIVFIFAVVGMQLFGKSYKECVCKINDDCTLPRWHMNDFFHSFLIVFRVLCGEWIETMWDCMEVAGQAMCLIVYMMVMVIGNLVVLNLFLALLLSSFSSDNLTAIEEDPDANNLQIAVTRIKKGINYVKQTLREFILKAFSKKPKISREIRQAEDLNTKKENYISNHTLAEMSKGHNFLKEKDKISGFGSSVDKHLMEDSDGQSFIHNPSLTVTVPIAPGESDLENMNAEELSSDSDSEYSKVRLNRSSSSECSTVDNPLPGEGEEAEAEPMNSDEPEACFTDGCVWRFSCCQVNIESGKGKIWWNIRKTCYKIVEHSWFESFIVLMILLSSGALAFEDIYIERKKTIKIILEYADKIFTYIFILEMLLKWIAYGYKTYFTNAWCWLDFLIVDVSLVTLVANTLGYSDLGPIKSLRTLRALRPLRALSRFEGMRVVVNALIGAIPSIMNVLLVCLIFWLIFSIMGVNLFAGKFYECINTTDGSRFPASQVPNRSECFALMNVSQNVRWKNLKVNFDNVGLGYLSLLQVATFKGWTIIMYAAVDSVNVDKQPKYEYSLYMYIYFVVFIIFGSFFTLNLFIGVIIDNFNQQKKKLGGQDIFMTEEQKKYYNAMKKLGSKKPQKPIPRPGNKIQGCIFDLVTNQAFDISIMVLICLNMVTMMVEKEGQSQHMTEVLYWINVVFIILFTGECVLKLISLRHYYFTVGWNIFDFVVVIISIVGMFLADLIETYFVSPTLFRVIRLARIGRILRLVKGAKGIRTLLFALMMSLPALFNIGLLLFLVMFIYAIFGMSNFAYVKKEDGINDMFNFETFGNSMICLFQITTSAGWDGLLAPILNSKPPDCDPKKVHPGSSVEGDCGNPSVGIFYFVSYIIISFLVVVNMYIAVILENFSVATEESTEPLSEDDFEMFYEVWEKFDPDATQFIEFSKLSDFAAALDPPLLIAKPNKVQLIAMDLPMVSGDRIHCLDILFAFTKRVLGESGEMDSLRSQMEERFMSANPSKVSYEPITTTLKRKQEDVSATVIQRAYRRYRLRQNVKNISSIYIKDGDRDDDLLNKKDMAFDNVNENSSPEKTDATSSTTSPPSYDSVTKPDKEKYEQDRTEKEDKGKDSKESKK

For the assay, the target named is human NaV 1.7 (Homo sapiens, UniProt Q15858). The assay can be described thus: E-VIPR optical membrane potential assay with electrical stimulation. To be noted: sodium channel inhibition; read-out: Binned Activity Data (IC50). Type of assay: cell-based. In outline:
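Membrane-potential read-out: background-subtracted 460 nm/580 nm ratio during a 9 s current-controlled stimulus, 400 Hz scan. Before stimulation, NaV1.7-HEK cells carried coumarin/oxonol dye and compound (final DMSO 0.625%) for 20–35 min at room temperature; tetracaine 125 μM served as positive control.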
Consider `Cn1ncc2c1-c1cc(F)ccc1OC21CCN(C(=O)c2ccccc2OC(F)(F)F)CC1` [Compound 382], for which the IC50 is no more than 2000 nM.

With `COc1ccccc1C(=O)N1CCC2(CC1)Oc1ccc(F)cc1-c1c2cnn1C` [Compound 383], the half-maximal inhibitory concentration (IC50) was no more than 2000 nM.

For the compound `COc1cnccc1C(=O)N1CCC2(CC1)Oc1ccccc1-c1c2cnn1C` [Compound 384], the 50% inhibitory concentration (IC50) was greater than 5000 nM.

With `CCCOc1ccc(C(=O)N2CCC3(CC2)Oc2ccccc2-c2c3cnn2C)cc1C(F)(F)F` [Compound 387], the IC50 is no more than 2000 nM.

Regarding `Cn1cc2c(n1)-c1ccccc1OC21CCN(C(=O)c2cccc(F)c2OC(F)F)CC1` [Compound 388], the IC50 was no more than 2000 nM.

Turning to `COCCOc1ccc(C(=O)N2CCC3(CC2)Oc2ccccc2-c2c3cnn2CC(F)(F)F)cc1OC` [Compound 391], the IC50 lay in the range of 2000 to 5000 nM.

`COc1ccc(C(=O)N2CCC3(CC2)Oc2cc(Cl)ccc2-n2c(C#N)ccc23)cc1C(F)(F)F` [Compound 392]: the IC50 was no more than 2000 nM.

For the compound `Cc1nc2cccc(C(=O)N3CCC4(CC3)Oc3cc(Cl)ccc3-n3cccc34)c2o1` [Compound 393], the IC50 was no more than 2000 nM.

For the compound `CCc1ccc(C(=O)N2CCC3(CC2)Oc2ccccc2-n2cc(C)cc23)cc1OC` [Compound 395], the IC50 was no more than 2000 nM.

For `COc1cc(C(=O)N2CCC3(CC2)Oc2ccccc2-c2c3cnn2C)ccc1O` [Compound 396], the IC50 was no more than 2000 nM.

With `COc1cc(C(=O)N2CCC3(CC2)Oc2ccccc2-n2c(C#N)ccc23)ccc1OC[C@H](O)CO` [Compound 398], the IC50 lay in the range of 2000 to 5000 nM.

`COc1cc(C(=O)N2CCC3(CC2)Oc2ccccc2-n2cccc23)ccc1C(C)(C)OC` [Compound 399]: the IC50 is no more than 2000 nM.

Turning to `N#Cc1ccc2n1-c1ccccc1OC21CCN(C(=O)c2ccccc2C(F)F)CC1` [Compound 401], the concentration for half-maximal inhibition (IC50) was no more than 2000 nM.

Take `CC(C)(C)S(=O)(=O)c1ccc(C(=O)N2CCC3(CC2)Oc2ccccc2-n2c3ccc2S(C)(=O)=O)cc1` [Compound 404]: the IC50 is no more than 2000 nM.

`Cn1ccc(C(=O)N2CCC3(CC2)Oc2ccccc2-n2cccc23)cc1=O` [Compound 405]: the IC50 is greater than 5000 nM.

For `C[C@@](O)(CO)c1ccc(C(=O)N2CCC3(CC2)Oc2ccccc2-n2c(C#N)ccc23)cc1` [Compound 406], the IC50 is no more than 2000 nM.

On to `COc1cc(C(=O)N2CCC3(CC2)Oc2cc(Cl)ccc2-n2cccc23)ccc1OC[C@H](C)OC` [Compound 407], for which the concentration for half-maximal inhibition (IC50) is no more than 2000 nM.

As to `Cc1cc(C(=O)N2CCC3(CC2)Oc2ccccc2-n2c(C#N)ccc23)ccc1OC(C)(C)C(=O)O` [Compound 408], the IC50 was in the range of 2000 to 5000 nM.

As to `O=C(c1ccccc1OC(F)F)N1CCC2(CC1)Oc1ccccc1-c1[nH]ncc12` [Compound 409], the concentration for half-maximal inhibition (IC50) was greater than 5000 nM.

`CCn1ncc2c1-c1ccccc1OC21CCN(C(=O)c2ccc(OC(C)C)c(C)c2)CC1` [Compound 410]: the IC50 was no more than 2000 nM.

For the compound `CN(C)CCOc1ccc(C(=O)N2CCC3(CC2)Oc2cc(F)ccc2-n2cccc23)cc1C(F)(F)F` [Compound 411], the half-inhibitory concentration (IC50) was greater than 5000 nM.

As for `Cc1cc(C(=O)N2CCC3(CC2)Oc2ccccc2-n2c(C(F)(F)F)ccc23)ccc1S(=O)(=O)N(C)C` [Compound 413], the IC50 is no more than 2000 nM.

For the compound `Cc1cc(C(=O)N2CCC3(CC2)Oc2cccnc2-c2c3cnn2C)ccc1OC(C)C` [Compound 414], the IC50 was no more than 2000 nM.

Take `Cc1cc(C(=O)N2CCC3(CC2)Oc2ccccc2-n2cccc23)ccc1OC(C)C` [Compound 415]: the half-inhibitory concentration (IC50) was no more than 2000 nM.

For `Cc1cc(C(=O)N2CCC3(CC2)Oc2cccc(F)c2-n2c(C#N)ccc23)ccc1OC(C)C` [Compound 416], the IC50 is no more than 2000 nM.

In the case of `COc1cc(C(=O)N2CCC3(CC2)Oc2cc(Cl)ccc2-n2cccc23)ccc1C(C)(C)CO` [Compound 417], the IC50 is no more than 2000 nM.

Turning to `Cn1ncc2c1-c1ccccc1OC21CCN(C(=O)c2ccc(C3(O)COC3)cc2)CC1` [Compound 418], the half-inhibitory concentration (IC50) lay in the range of 2000 to 5000 nM.

Consider `CC(C)(C)c1ccc(C(=O)N2CCC3(CC2)Oc2ccccc2-n2cccc23)cc1C#N` [Compound 419], for which the IC50 was no more than 2000 nM.

`COCCOc1ccc(C(=O)N2CCC3(CC2)Oc2ccccc2-c2c3cnn2C)cc1OC` [Compound 420]: the IC50 was no more than 2000 nM.

For the compound `Cn1ncc2c1-c1ccccc1OC21CCN(C(=O)c2ccc3c(c2)OC(C)(C)C3)CC1` [Compound 422], the IC50 is 2000 to 5000 nM.

Consider `CC(C)CS(=O)(=O)c1ccc(C(=O)N2CCC3(CC2)Oc2ccccc2-c2c3cnn2C)cc1` [Compound 423], for which the IC50 is no more than 2000 nM.

Consider `CC(C)(O)c1ccc(C(=O)N2CCC3(CC2)Oc2ccccc2-n2c(C(F)(F)F)ccc23)cc1F` [Compound 424], for which the IC50 is no more than 2000 nM.

Turning to `Cn1cc2c(n1)-c1ccccc1OC21CCN(C(=O)c2ccc(C(C)(C)O)c(CO)c2)CC1` [Compound 425], the IC50 is greater than 5000 nM.

With `Cc1cc(S(=O)(=O)C(C)C)ccc1C(=O)N1CCC2(CC1)Oc1ccccc1-n1c(C#N)ccc12` [Compound 426], the IC50 is no more than 2000 nM.

For `COc1cc(C(=O)N2CCC3(CC2)Oc2ccccc2-c2c3cnn2C)ccc1O[C@@H]1CCOC1` [Compound 427], the IC50 was no more than 2000 nM.

For the compound `COc1cc(C(=O)N2CCC3(CC2)Oc2ccccc2-c2c3cnn2C)ccc1C(C)(C)C` [Compound 429], the IC50 is no more than 2000 nM.

Consider `CC(C)Oc1ccccc1C(=O)N1CCC2(CC1)Oc1ccccc1-c1c2cnn1C` [Compound 430], for which the IC50 was no more than 2000 nM.

As to `CC(C)S(=O)(=O)c1ccc(C(=O)N2CCC3(CC2)Oc2cc(CO)ccc2-n2c(C#N)ccc23)cc1` [Compound 431], the IC50 was no more than 2000 nM.

Regarding `COc1ccc(C(=O)N2CCC3(CC2)Oc2ccccc2-c2c3cnn2C)cc1C` [Compound 433], the IC50 was no more than 2000 nM.

As for `COc1cc(Cl)ccc1C(=O)N1CCC2(CC1)Oc1cc(Cl)ccc1-n1cccc12` [Compound 434], the IC50 was no more than 2000 nM.

Take `COc1cc(C(=O)N2CCC3(CC2)Oc2ccc(F)cc2-c2nn(C)cc23)ccc1OC(C)C` [Compound 435]: the IC50 is no more than 2000 nM.

In the case of `CC(C)CS(=O)(=O)c1ccc(C(=O)N2CCC3(CC2)Oc2ccccc2-n2c(C#N)ccc23)cc1` [Compound 436], the IC50 was no more than 2000 nM.

For the compound `COc1cc(C(=O)N2CCC3(CC2)Oc2ccccc2-n2cccc23)ccc1O[C@@H]1CCC[C@H]1O` [Compound 437], the 50% inhibitory concentration (IC50) is no more than 2000 nM.

For `COc1ccc(C(=O)N2CCC3(CC2)Oc2ccccc2-n2c(C(F)(F)F)ccc23)nc1` [Compound 438], the IC50 is no more than 2000 nM.

Consider `Cn1ncc2c1-c1ccccc1OC21CCN(C(=O)c2cccc3nccnc23)CC1` [Compound 439], for which the IC50 is no more than 2000 nM.

In the case of `Cc1ccc2c(c1)OC1(CCN(C(=O)c3ccc(S(=O)(=O)C(C)C)cc3)CC1)c1ccc(C#N)n1-2` [Compound 440], the 50% inhibitory concentration (IC50) is no more than 2000 nM.

On to `COc1cc(C(=O)N2CCC3(CC2)Oc2ccccc2-c2c3cnn2C)ccc1C1CC1` [Compound 442], for which the IC50 is no more than 2000 nM.

As for `Cc1cc(C(=O)N2CCC3(CC2)Oc2ccccc2-n2cccc23)ccc1C(C)(C)O` [Compound 443], the IC50 was no more than 2000 nM.

Regarding `Cn1ncc2c1-c1ccccc1OC21CCN(C(=O)c2ccc3[nH]ncc3c2)CC1` [Compound 444], the IC50 is greater than 5000 nM.

Turning to `CCOc1cccc(C(=O)N2CCC3(CC2)Oc2ccccc2-n2c3ccc2S(C)(=O)=O)c1F` [Compound 445], the IC50 is 2000 to 5000 nM.

Take `CCn1ncc2c1-c1cc(F)ccc1OC21CCN(C(=O)c2ccccc2OC(F)F)CC1` [Compound 446]: the IC50 is no more than 2000 nM.

In the case of `Cc1cc(C(C)(C)O)ccc1C(=O)N1CCC2(CC1)Oc1ccccc1-c1c2cnn1C` [Compound 447], the IC50 is no more than 2000 nM.

Regarding `CN(C)C(=O)c1ccccc1C(=O)N1CCC2(CC1)Oc1ccccc1-c1c2cnn1C` [Compound 448], the IC50 lay in the range of 2000 to 5000 nM.

As to `COC[C@@H](C)Oc1ccc(C(=O)N2CCC3(CC2)Oc2ccccc2-n2cccc23)cc1OC` [Compound 449], the 50% inhibitory concentration (IC50) is no more than 2000 nM.

In the case of `Cn1ncc2c1-c1ccccc1OC21CCN(C(=O)c2ccccc2OC(F)(F)F)CC1` [Compound 452], the IC50 was no more than 2000 nM.

Turning to `Cc1cc(C(=O)N2CCC3(CC2)Oc2cc(Cl)ccc2-n2cccc23)ccc1C#N` [Compound 453], the IC50 is no more than 2000 nM.

`CCc1ccc(C(=O)N2CCC3(CC2)Oc2cc(CN(C)C)ccc2-n2cccc23)cc1OC` [Compound 454]: the half-maximal inhibitory concentration (IC50) lay within 2000 to 5000 nM.

As to `CC(C)(O)c1ccc(C(=O)N2CCC3(CC2)Oc2ccccc2-n2c(C(F)(F)F)ccc23)cn1` [Compound 455], the IC50 was greater than 5000 nM.

`CCS(=O)(=O)c1ccc(C(=O)N2CCC3(CC2)Oc2ccccc2-n2c(C(F)(F)F)ccc23)cc1` [Compound 456]: the IC50 is no more than 2000 nM.

`COc1cccc2c(C(=O)N3CCC4(CC3)Oc3ccccc3-c3c4cnn3C)c[nH]c12` [Compound 460]: the IC50 was no more than 2000 nM.

For the compound `Cc1cc(C(=O)N2CCC3(CC2)Oc2ccccc2-n2c(C#N)ccc23)ccc1OCC(=O)O` [Compound 462], the IC50 is 2000 to 5000 nM.

On to `COc1cccc2[nH]cc(C(=O)N3CCC4(CC3)Oc3ccccc3-c3c4cnn3C)c12` [Compound 463], for which the IC50 was no more than 2000 nM.

For `CC(C)Oc1ccc(C(=O)N2CCC3(CC2)Oc2ccccc2-c2c3cnn2C)cc1` [Compound 464], the IC50 is no more than 2000 nM.

In the case of `COc1cc(C)ccc1C(=O)N1CCC2(CC1)Oc1ccccc1-c1c2cnn1C` [Compound 465], the IC50 was no more than 2000 nM.

In the case of `COc1cc(C(=O)N2CCC3(CC2)Oc2ccccc2-n2cccc23)ccc1OCCCO` [Compound 466], the half-maximal inhibitory concentration (IC50) was no more than 2000 nM.

As for `Cn1ncc2c1-c1ccc(F)cc1OC21CCN(C(=O)c2ccccc2OC(F)(F)F)CC1` [Compound 468], the IC50 was no more than 2000 nM.

Consider `COCCOc1ccc(C(=O)N2CCC3(CC2)Oc2ccccc2-c2c3cnn2CCOC)cc1OC` [Compound 469], for which the IC50 fell in the range of 2000 to 5000 nM.

For the compound `COc1ccc(C(=O)N2CCC3(CC2)Oc2ccccc2-c2c3cnn2C)c(O)c1` [Compound 470], the IC50 lay within 2000 to 5000 nM.

As for `O=C(c1cccnc1Oc1ccc(F)cc1)N1CCC2(CC1)Oc1ccccc1-n1c(C(F)(F)F)ccc12` [Compound 472], the IC50 is no more than 2000 nM.

As usually defined, the IC50 is the concentration at which inhibition is half-maximal.

The values above are taken from US9365588B2, “Benzoxazines as modulators of ion channels” (Vertex Pharmaceuticals Incorporated, priority 2011, dated 2016).
